Consider 19 compounds from patent US12187653B2, “Surface retarder formulation and method for replicating an acid etch or sand blast aspect on cementitious material” (GCP Applied Technologies Inc., priority 2018, dated 2025).

Series [1] can be described thus: Cement binding: percent of species absorbed to cement, by ion chromatography. The conditions noted are these: for % adsorbed: 1% acid in 2% KOH solution, 30 g solution on 3 g cement, 10 min; for % binding to cement: Example 6, procedure of Example 1B. On the procedure:
Each acid was dissolved at 1% by weight in a 2% by weight KOH solution. Thirty grams of solution was exposed to 3 g of Type I/II cement in a tube, and mixed on a tube rotator for 10 min @ 30 rpm. The resulting slurry was centrifuged for 1 min at 4000 rpm to separate the cement and adsorbed compounds from the soluble species. The soluble portion was filtered with a 0.2 micron syringe filter and then analyzed by ion chromatography using an ICS-2100 RFIC by Dionex with single point calibration with a standard at 100 ppm. Samples and standards were prepared in 50 mM KOH solution. Samples' dilutions were adjusted to be within calibration range. Data analysis run through peak area integration.
The cement binding is expressed as a percent of the species present that absorbed to the cement.

Series [2] can be described thus: Etch quality of in-form surface retarder on cast concrete after pressure washing. The note with it: for surface etch: Example 6, procedure of Example 2. On the procedure:
Each was used to make an in-form surface retarder by combining the materials shown below, in the order listed, in a Silverson-high shear rotor-stator mixer at 5000 rpm, and mixing for 10 minutes after the final addition.
The exemplary in-form surface retarder was roller applied in rectangles on a wood form at a rate of 400 ft^2/gallon and allowed to dry for 2 hours at 72° F.
The concrete was poured into the wood form which has the surface retarder paint applied. The concrete was allowed to dry and cure without covering for 22 hours at a temperature of 90° F.
After 22 hours of curing, the concrete was removed from the wood mold and sprayed with high pressure water from a 1900 psi pressure washer to remove the in-form surface retarder and retarded cement paste. Washing continued until water was running clear and no further cement paste is removed (this process removes whatever cement paste that has not hardened to the surface of the concrete due to the retarding effects of the acids tested).

For series [3] the following is noted: Table 5: resin in the given solvent. On the procedure: The solubility of resin in various organic solvents was evaluated by observation. A small amount of resin (0.2 g) was placed in a vial with 3 mL of the solvent. Observations were made immediately, after two hours and thirty minutes, and after 15 hours.
A short description of series [4]: Solubility of acids in water, saturated solution measured by Total Organic Carbon. The conditions noted are these: in 100 mL water, 25° C., stirred 14 hours, TOC.
Experimental: The mixture was allowed to settle and the saturated aqueous solution of acid was decanted. Concentration was measured by Total Organic Carbon using a TOC-L CSH/CSN by Shimadzu. A calibration curve is generate based off a four point calibration of 0 ppm, 25 ppm, 50 ppm, and 100 ppm carbon. Samples are then diluted to a predetermined dilution factor. 20 mL of the diluted samples are acidified to a pH of ^˜2-3 with hydrochloric acid. Samples are run based off the calibration curve performing two 50 uL injections each to determine the total organic carbon of the sample.
The mark [5] stands for this setting: Example 2: retarder with 8 g acid, 400 ft^2/gallon on wood form, concrete cured 22 hours at 90° F., compared to FIG. 1.
Where [6] appears, read: Example 3, same procedure as Example 2, tartaric acid forms compared.

Consider `O=C(O)C(O)C(O)C(=O)O` (racemic) [DL-Tartaric Acid], for which, in series [1], the “% adsorbed” value came to 31.6%. Besides, the Etch depth entry in series [2] (setting [5]) is on record as “just right, light etch showing sand textures”; in series [2] (setting [6]), “just right, light etch showing sand textures”.
With `O=C(O)/C=C(\CC(=O)O)C(=O)O` [trans-Aconitic Acid], the “% binding to cement” value in series [1] amounted to 5%.
As to `O=C(O)CN(CCN(CC(=O)O)CC(=O)O)CC(=O)O` [Ethylenediamine-tetraacetic], the “% binding to cement” value in series [1] was found to be 36%. Moreover, in series [2], the surface etch result is “very light to none”.
Turning to `OB(O)O` [Boric Acid by ICP, Boric Acid], the “% binding to cement” value in series [1] is recorded as 100%.
In the case of `O=C(O)C(O)C(O)C(=O)O` (centres unmarked) [D Tartaric Acid], the “% adsorbed” value in series [1] came out at 29.1%. The Etch depth result in series [2] (setting [5]) is “too deep, coarse aggregates visible”; in series [2] (setting [6]), “too deep, coarse aggregates visible”.
Take `O=C(O)C(=O)O` [Oxalic Acid]: the “% adsorbed” value in series [1] was 94.8%. In addition, the Etch depth result in series [2] (setting [5]) is on record as “just right, light etch showing sand textures”.
With `NCCCCCCCCCCCC(=O)O` [12-Aminododecanoic Acid], the “% binding to cement” value in series [1] was determined as 90%. Further, the surface etch result in series [2] was “very light to none”.
For the compound `C/C(=C\C(=O)O)C(=O)O` [Mesaconic Acid], the “% adsorbed” value in series [1] is listed as 0%. Moreover, the Etch depth result in series [2] (setting [5]) was “Very light to none”.
In the case of `O=C[C@H](O)[C@@H](O)[C@H](O)[C@H](O)CO` [D-(+)-Glucose], the “% binding to cement” value in series [1] is on record as 100%.
In the case of `O=C(O)CC(=O)O` [Malonic Acid], the “% adsorbed” value in series [1] worked out at 6.3%. Moreover, the Etch depth entry in series [2] (setting [5]) is “too deep, coarse aggregates visible”.
Consider `O=C(O)CCC(=O)O` [Succinic Acid], for which the “% adsorbed” value in series [1] is 6.4%. Moreover, the Etch depth entry in series [2] (setting [5]) is “Lighter than optimum, not even”.
Consider `O=C(O)CCCCC(=O)O` [Adipic Acid], for which the “% adsorbed” value in series [1] was found to be 1.1%. Moreover, in series [2] (setting [5]), the Etch depth entry is “Lighter than optimum, not even”.
On to `O=C(O)c1ccccc1C(=O)O` [Phthalic Acid], for which the “% adsorbed” value in series [1] was 0%. In series [2] (setting [5]), the Etch depth result is recorded as “Very light to none”.
Take Xylene: in series [3], the Resin solubility entry is listed as “Dissolved”.
Turning to `O=C(O)C(O)C(O)C(=O)O` (centres unmarked) [L Tartaric Acid], the “% adsorbed” value in series [1] worked out at 21.5%. For the same compound, the Etch depth entry in series [2] (setting [5]) is listed as “too deep, coarse aggregates visible”; in series [2] (setting [6]), “too deep, coarse aggregates visible”.
Take `O=C(O)CCCC(=O)O` [Glutaric Acid]: the “% adsorbed” value in series [1] stood at 0%. The Etch depth result in series [2] (setting [5]) was “just right, light etch showing sand textures”. The Solubility in series [4] was 36 g/100 g.
For `CCCCOC(C)=O` [Butyl Acetate], in series [3], the Resin solubility result is “Dissolved”.
On to `C/C(=C/C(=O)O)C(=O)O` [Citraconic Acid], for which, in series [1], the “% adsorbed” value was 1.9%. The Etch depth entry in series [2] (setting [5]) was “Lighter than optimum, not even”.
`CC(C(=O)O)C(=O)O` [Methymalonic Acid, Methylmalonic acid]: the “% adsorbed” value in series [1] was 7.0%. Further, in series [2] (setting [5]), the Etch depth entry was “Very light to none”. The compound further gave a Solubility in series [4] of 5 g/100 g.
